Measured values taken from patent publication US7205382B2, “Peptides, the production and use thereof for binding immunoglobulins” (Fresenius Medical Care Affina GmbH, priority 2000, dated 2007).
Bridge positions count the residues as written; N and C are the ends. Square brackets hold non-standard residues; d marks the D form. Ends that are not written are not given here. cellulose = not defined here; βAla = NCCC(=O)O

How the values were obtained:
Type in all cases: binding
Parameters in all cases: key: No binding of immunoglobulin for the defined peptide variant, detection negative: 0; Binding of immunoglobulin for the defined peptide variant, detection positive: +
human IgG-Fc = assay: Cellulose-immobilized 13-mer peptide variants incubated with human IgG-Fc, anti-human IgG-AP detection; details: IgG-Fc 1 μg/ml in blocking buffer, 3 h room temperature
Summary of the method: (§1)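 Peptides on cellulose via a (βA)(βA) spacer were blocked in T-TBS (pH 8.0) with 5% saccharose and 4% BSA, then exposed for 3 h at room temperature to IgG-Fc (1 μg/ml), serum diluted 1:10,000, or blocking buffer alone. Bound IgG was detected with AP-anti-human IgG (1.2 μg/ml) and NBT/BCIP colour development.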

[1] = tested on: immunoglobulins in human plasma; assay: Cellulose-immobilized 13-mer peptide variants incubated with human plasma, anti-human IgG-AP detection; details: human plasma as sample, diluted 1:10,000 in blocking buffer, 3 h room temperature
Summary of the method: as §1

serum albumin = assay: Cellulose-immobilized 13-mer peptide variants incubated with serum albumin (negative control), anti-human IgG-AP detection; details: blocking buffer without addition, 3 h room temperature
Summary of the method: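 SPOT-type 13-mer peptides on cellulose with a (βA)(βA) spacer, blocked in 5% saccharose/4% BSA in T-TBS pH 8.0. Incubated 3 h at RT with human IgG-Fc (1 μg/ml) or human serum/plasma (1:10,000), or with blocking buffer alone as the albumin specificity control. Bound IgG detected with AP-anti-human IgG (1.2 μg/ml) and NBT/BCIP colorimetric development at pH 9.5.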

| Substance | Result for incubation with human IgG-Fc (immunoglobulin binding detection) (human IgG-Fc) | Result for incubation with human plasma (immunoglobulin binding detection) [1] | Result for incubation with serum albumin (immunoglobulin binding detection) (serum albumin) |
| --- | --- | --- | --- |
| 06F: cellulose-bound 13-mer variant DCAWHFGELVWCT-(βA)(βA) (DCAWHFGELVWCT[βAla][βAla]; disulfide 2-12 (inferred); not fully specified (N-terminus); printed as DCAWHFGELVWCT-(βA)(βA); also: cellulose-bound) | 0 | 0 | 0 |
| 02G: cellulose-bound 13-mer variant DGAWHLGELVWCT-(βA)(βA) (DGAWHLGELVWCT[βAla][βAla]; not fully specified; printed as DGAWHLGELVWCT-(βA)(βA); also: cellulose-bound) | 0 | 0 | 0 |
| 12F: cellulose-bound 13-mer variant DCAWHLGELVWFT-(βA)(βA) (DCAWHLGELVWFT-{βAla-βAla-cellulose}; not fully specified; printed as DCAWHLGELVWFT-(βA)(βA); reading uncertain) | 0 | 0 | 0 |
| 04D: cellulose-bound 13-mer variant DCADHLGELVWCT-(βA)(βA) (DCADHLGELVWCT-{βAla-βAla-cellulose}; disulfide 2-12 (inferred); reading uncertain; also: printed as DCADHLGELVWCT-(βA)(βA)) | 0 | 0 | 0 |
| 04N: cellulose-bound 13-mer variant DCANHLGELVWCT-(βA)(βA) (DCANHLGELVWCT[βAla][βAla]; disulfide 2-12 (inferred); also: cellulose-bound) | + | 0 | 0 |
| 03I: cellulose-bound 13-mer variant DCIWHLGELVWCT-(βA)(βA) (DCIWHLGELVWCT-{βAla-βAla-cellulose}; disulfide 2-12 (inferred); reading uncertain; also: printed as DCIWHLGELVWCT-(βA)(βA)) | 0 | 0 | 0 |
| 07T: cellulose-bound 13-mer variant DCAWHLTELVWCT-(βA)(βA) (DCAWHLTELVWCT-{βAla-βAla-cellulose}; disulfide 2-12 (inferred); not fully specified (N-terminus); printed as DCAWHLTELVWCT-(βA)(βA); reading uncertain) | 0 | 0 | 0 |
| 04L: cellulose-bound 13-mer variant DCALHLGELVWCT-(βA)(βA) (DCALHLGELVWCT[βAla][βAla]; disulfide 2-12 (inferred); also: cellulose-bound) | + | 0 | 0 |
| 08F: cellulose-bound 13-mer variant DCAWHLGFLVWCT-(βA)(βA) (DCAWHLGFLVWCT-{βAla-βAla-cellulose}; disulfide 2-12 (inferred); not fully specified (N-terminus); printed as DCAWHLGFLVWCT-(βA)(βA); reading uncertain) | 0 | 0 | 0 |
| 05L: cellulose-bound 13-mer variant DCAWLLGELVWCT-(βA)(βA) (disulfide 2-12 (inferred); not fully specified (N-terminus, C-terminus); printed as DCAWLLGELVWCT-(βA)(βA); also: cellulose-bound) | 0 | 0 | 0 |
| 03S: cellulose-bound 13-mer variant DCSWHLGELVWCT-(βA)(βA) (DCSWHLGELVWCT-{βAla-βAla-cellulose}; disulfide 2-12 (inferred); reading uncertain; also: printed as DCSWHLGELVWCT-(βA)(βA)) | + | + | 0 |
| 10W: cellulose-bound 13-mer variant DCAWHLGELWWCT-(βA)(βA) (DCAWHLGELWWCT-{βAla-βAla-cellulose}; disulfide 2-12 (inferred); reading uncertain; also: printed as DCAWHLGELWWCT-(βA)(βA)) | 0 | 0 | 0 |
| 05Q: cellulose-bound 13-mer variant DCAWQLGELVWCT-(βA)(βA) (disulfide 2-12 (inferred); not fully specified (N-terminus, C-terminus); printed as DCAWQLGELVWCT-(βA)(βA); also: cellulose-bound) | 0 | 0 | 0 |
| 10F: cellulose-bound 13-mer variant DCAWHLGELFWCT-(βA)(βA) (DCAWHLGELFWCT-{βAla-βAla-cellulose}; disulfide 2-12 (inferred); reading uncertain; also: printed as DCAWHLGELFWCT-(βA)(βA)) | 0 | 0 | 0 |
| 10N: cellulose-bound 13-mer variant DCAWHLGELNWCT-(βA)(βA) (DCAWHLGELNWCT-{βAla-βAla-cellulose}; disulfide 2-12 (inferred); reading uncertain; also: printed as DCAWHLGELNWCT-(βA)(βA)) | 0 | 0 | 0 |
